For 18 molecules, IC50 and GI50 results are on record in patent US20170107207A1, “AMINOPYRAZOLONE DERIVATIVE” (DAIICHI SANKYO COMPANY, LIMITED, priority 2014, published 2017).

One test addresses T1, TIP48/TIP49 complex (Homo sapiens, UniProt Q9Y230+Q9Y265).
T1 construct: made in house; host or cells: E. coli
Put plainly: ATPase assay of TIP48/TIP49 complex (ADP-Glo). It is filed as biochemical. The conditions noted are these: concentration at which the ATPase activity was inhibited by 50%. The method in brief: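 Recombinant human TIP48 and TIP49 expressed in E. coli (24.5 μg/mL final) were incubated 1.5 h at room temperature with compound (0.0007–200 μM, 2% DMSO) in Tris-HCl pH 7.5 buffer containing MgCl2 and ATP. ADP formed was detected by ADP-Glo luminescence; inhibition came from dose-response curves.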
In general terms: ADP-Glo turns the ADP formed in a reaction into a luminescent signal.

For test [1], the system named is human lymphoma cell line RAMOS cells. Put plainly: Cell growth inhibition test using RAMOS cell, MTT assay. The conditions noted are these: 50% growth inhibition concentration. It is filed as cell-based. Here is the method:
A cell growth inhibition test was carried out by treating human lymphoma cell line RAMOS cells with a test compound for a given period and then counting the number of viable cells by MTT assay or CellTiter-Glo Luminescent Cell Viability Assay (manufactured by Promega Corp.; hereinafter, referred to as ATP assay).
RAMOS cells were suspended in a medium (RPMI1640 medium containing 10% fetal bovine serum). The cell suspension was inoculated at 5000 cells/150 μL/well to a 96-well multiwell plate. The test compound was dissolved in DMSO, and this solution was diluted with medium to prepare a sample solution (DMSO concentration: 1% or lower). Subsequently, test compound-free medium or the sample solution was added thereto at 50 μL/well. The MTT assay was carried out at the day of addition of the sample solution or the DMSO dilution to the cells and after culture at 37° C. for 3 days under 5% CO2 of the cells supplemented with the sample solution or the medium. The MTT assay was carried out as follows.
A 5 mg/mL solution of MTT (3-(4,5-dimethylthiazol-2-yl)-2,5-diphenyltetrazolium bromide, Sigma-Aldrich Corp., M-2128) was prepared using a phosphate buffered solution (Dulbecco's phosphate-buffered saline). This MTT solution was added at 20 μL/well to the plate. Then, the plate was incubated at 37° C. for 4 hours under 5% CO2. The plate was centrifuged at 1200 rpm for 5 minutes, and then, the culture supernatant was removed by suction using a dispenser. DMSO was added thereto at 150 μL/well to dissolve formed formazan. […] from each well was rendered uniform by the stirring of the plate using a plate mixer. The absorbance of each well was measured using a plate reader under conditions involving OD of 540 nm and reference of 660 nm.
The number of viable cells and absorbance (hereinafter, referred to as an OD value) have been confirmed to correlate with each other. Therefore, the rate of cell growth was calculated according to the following expression: Rate of cell growth (T/C %) of a test compound-supplemented well=100×[(B−C)/(A−C)] wherein A represents the OD value (final culture date) of a test compound-free well; B represents the OD value (final culture date) of a test compound-containing well; and C represents the OD value (day of cell inoculation) of a well at the start of contact of the cells with the test compound.
T/C % at each concentration of the test compound was determined. The concentration at which the test compound offered 50% growth rate was calculated as a 50% growth inhibition concentration (GI50) value from the growth rates at two points interpolating 50% and the concentrations, and is shown in Table 56.
For orientation: Formazan colour is commonly taken as a measure of viable cells.

T1 sequence (Q9Y230 whole entry): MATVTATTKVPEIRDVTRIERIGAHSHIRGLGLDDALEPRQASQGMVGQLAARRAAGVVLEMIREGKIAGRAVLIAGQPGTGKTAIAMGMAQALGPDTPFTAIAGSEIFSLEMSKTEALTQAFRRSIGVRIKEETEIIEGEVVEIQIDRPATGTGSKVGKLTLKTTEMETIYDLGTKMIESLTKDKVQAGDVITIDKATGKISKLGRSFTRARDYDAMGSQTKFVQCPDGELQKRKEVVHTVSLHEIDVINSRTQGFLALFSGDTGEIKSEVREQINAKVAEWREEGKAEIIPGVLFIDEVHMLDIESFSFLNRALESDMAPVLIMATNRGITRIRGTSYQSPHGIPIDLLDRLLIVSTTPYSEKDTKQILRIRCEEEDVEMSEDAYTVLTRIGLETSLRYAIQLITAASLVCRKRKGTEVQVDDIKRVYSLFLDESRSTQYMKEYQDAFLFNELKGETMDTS
T1 sequence (Q9Y265 whole entry): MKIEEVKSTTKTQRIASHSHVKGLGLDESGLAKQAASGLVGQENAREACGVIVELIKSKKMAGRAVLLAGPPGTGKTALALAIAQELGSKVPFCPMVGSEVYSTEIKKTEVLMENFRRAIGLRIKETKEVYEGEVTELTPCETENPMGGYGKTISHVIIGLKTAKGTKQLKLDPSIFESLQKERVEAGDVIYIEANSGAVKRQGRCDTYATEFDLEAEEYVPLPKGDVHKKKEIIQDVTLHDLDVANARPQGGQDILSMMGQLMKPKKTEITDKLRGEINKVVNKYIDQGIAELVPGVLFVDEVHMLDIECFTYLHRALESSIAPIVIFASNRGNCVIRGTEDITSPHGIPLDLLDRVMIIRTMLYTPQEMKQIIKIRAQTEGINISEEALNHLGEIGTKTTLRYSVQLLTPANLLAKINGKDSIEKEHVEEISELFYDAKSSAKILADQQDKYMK

On TIP48/TIP49 complex, `CCOc1ccc(Cl)cc1C(=O)NCC(C)(C)CC(=O)Nc1c(CCNC)n(C)n(-c2ccccc2)c1=O` [Example 33, 5-Chloro-N-[2,2-dimethyl-4-({1-methyl-5-[2-(methylamino)ethyl]-3-oxo-2-phenyl-2,3-dihydro-1H-pyrazol-4-yl}amino)-4-oxobutyl]-2-ethoxybenzamide] showed an IC50 of 63 nM. In test [1], this molecule had a GI50 of 130 nM.

As for `Cc1cc2cc(Cl)cc(C(=O)NCC(C)(C)CC(=O)Nc3c(C)n(C)n(-c4ccccn4)c3=O)c2o1` [Example 151, 5-Chloro-N-(4-{[1,5-dimethyl-3-oxo-2-(2-pyridyl)-2,3-dihydro-1H-pyrazol-4-yl]amino}-2,2-dimethyl-4-oxobutyl)-2-methylbenzofuran-7-carboxamide], on TIP48/TIP49 complex, the midpoint of inhibition, the IC50, lay at 40 nM. For the same molecule, it took 130 nM to inhibit growth in test [1] by half (GI50).

As to `COc1ccc(Cl)cc1NC(=O)CC1(CC(=O)Nc2c(C)n(C)n(-c3ccccc3)c2=O)CCC1` [Example 100, N-(5-Chloro-2-methoxyphenyl)-2-(1-{2-[(1,5-dimethyl-3-oxo-2-phenyl-2,3-dihydro-1H-pyrazol-4-yl)amino]-2-oxoethyl}cyclobutyl)acetamide], half-maximal inhibition against TIP48/TIP49 complex (IC50) was put at 95 nM. For the same molecule, in test [1], it took 860 nM to inhibit growth by half (GI50).

With `CCOc1ccc(Cl)cc1C(=O)NCC(C)(C)CC(=O)Nc1c(CCNC(=O)OC(C)(C)C)n(C)n(-c2ccccc2)c1=O` [Example 10, tert-Butyl N-{2-[4({4-[(5-chloro-2-ethoxybenzoyl)amino]-3,3-dimethylbutanoyl}amino)-2-methyl-5-oxo-1-phenyl-2,3-dihydro-1H-pyrazol-3-yl]ethyl}carbamate], on TIP48/TIP49 complex, half-maximal inhibition (IC50) required 14 nM. This molecule also came in with a GI50 in test [1] of 45 nM.

`Cc1c(NC(=O)CC(C)(C)CNC(=O)c2cc(Cl)cc3c2OC(C)CN3)c(=O)n(-c2ccccc2)n1C` (stereo not drawn) [Example 109] returned an IC50 against TIP48/TIP49 complex of 200 nM. This molecule registered a 50% growth inhibitory concentration (GI50) in test [1] of 200 nM.

For the molecule `CCOc1cc(F)c(Cl)cc1NC(=O)CC(C)(C)CC(=O)Nc1c(COC)n(C)n(-c2ccccc2)c1=O` [Example 119, N-(5-Chloro-2-ethoxy-4-fluorophenyl)-N′-[5-(methoxymethyl)-1-methyl-3-oxo-2-phenyl-2,3-dihydro-1H-pyrazol-4-yl]-3,3-dimethylpentanediamide], the midpoint of inhibition at TIP48/TIP49 complex, the IC50, lay at 95 nM. The molecule also showed a GI50 in test [1] of 270 nM.

`COc1ccc(CN(C)Cc2c(NC(=O)CC(C)(C)CNC(=O)c3cc(Cl)ccc3OC)c(=O)n(-c3ccccc3)n2C)c(OC)c1` [Example 3, 5-Chloro-N-{4-[(5-{[(2,4-dimethoxyphenylmethyl)-methylamino]methyl}-1-methyl-3-oxo-2-phenyl-2,3-dihydro-1H-pyrazol-4-yl)amino]-2,2-dimethyl-4-oxobutyl}-2-methoxybenzamide] gave an IC50 at TIP48/TIP49 complex of 54 nM. In test [1], this molecule displayed a GI50 of 850 nM.

On to `COc1ccc(Cl)cc1NC(=O)CC(C)(CC(=O)Nc1c(C)n(C)n(-c2ccccc2)c1=O)OC` (stereo not drawn) [Example 104, N-(5-Chloro-2-methoxyphenyl)-N′-(1,5-dimethyl-3-oxo-2-phenyl-2,3-dihydro-1H-pyrazol-4-yl)-3-methoxy-3-methylpentanediamide], for which the IC50 against TIP48/TIP49 complex came to 250 nM. The same molecule had a concentration for 50% growth inhibition (GI50) in test [1] of 1300 nM.

At TIP48/TIP49 complex, `COc1cc(F)c(Cl)cc1NC(=O)CC(C)(C)CC(=O)Nc1c(C)[nH]n(-c2ccccc2)c1=O` [Example 144, N-(5-Chloro-4-fluoro-2-methoxyphenyl)-3,3-dimethyl-N′-(5-methyl-3-oxo-2-phenyl-1H-pyrazol-4-yl)pentanediamide] yielded a half-maximal inhibitory concentration (IC50) of 1500 nM. The molecule further displayed a GI50 in test [1] of 11000 nM.

`CCOc1ccc(Cl)cc1C(=O)NCC(C)(C)CC(=O)Nc1c(C)n(C)n(-c2ccccc2)c1=O` [Example 93, 5-Chloro-N-{4-[(1,5-dimethyl-3-oxo-2-phenyl-2,3-dihydro-1H-pyrazol-4-yl)amino]-2,2-dimethyl-4-oxobutyl}-2-ethoxybenzamide]: on TIP48/TIP49 complex, the IC50 was determined as 25 nM. The molecule further yielded a GI50 in test [1] of 55 nM.

In the case of `Cc1c(NC(=O)CC(C)(C)CC(=O)Nc2cc(Cl)ccc2OC(C)C)c(=O)n(-c2cccc(C(F)(F)F)c2)n1C` [Example 147, N-(5-Chloro-2-isopropoxy-phenyl)-N′-[1,5-dimethyl-3-oxo-2-[3-(trifluoromethyl)phenyl]pyrazol-4-yl]-3,3-dimethylpentanediamide], the IC50 on TIP48/TIP49 complex was determined as 81 nM. In test [1], this molecule yielded a GI50 of 40 nM.

Molecule `CCOc1cc(F)c(Cl)cc1NC(=O)CC(C)(C)CC(=O)Nc1c(CCN(C)C)n(C)n(-c2ccccc2)c1=O` [Example 24, N-(5-Chloro-2-ethoxy-4-fluorophenyl)-N′-{5-[2-(dimethylamino)ethyl]-1-methyl-3-oxo-2-phenyl-2,3-dihydro-1H-pyrazol-4-yl}-3,3-dimethylpentanediamide] returned an IC50 on TIP48/TIP49 complex of 380 nM. In addition, it took 480 nM to inhibit growth in test [1] by half (GI50).

`Cc1c(NC(=O)CC(C)(C)CNC(=O)c2cc(Cl)ccc2OC2COC2)c(=O)n(-c2ccccc2)n1C` [Example 108, 5-Chloro-N-{4-[(1,5-dimethyl-3-oxo-2-phenyl-2,3-dihydro-1H-pyrazol-4-yl)amino]-2,2-dimethyl-4-oxobutyl}-2-(oxetan-3-yloxy)benzamide]: the IC50 against TIP48/TIP49 complex was 190 nM. Also, the GI50 in test [1] is 740 nM.

On to `COc1cc(F)c(Cl)cc1C(=O)NCC(C)(C)CC(=O)Nc1c(CN(C)C)n(C)n(-c2ccccc2)c1=O` [Example 6, 5-Chloro-N-[4-({5-[(dimethylamino)methyl]-1-methyl-3-oxo-2-phenyl-2,3-dihydro-1H-pyrazol-4-yl}amino)-2,2-dimethyl-4-oxobutyl]-4-fluoro-2-methoxybenzamide], for which, at TIP48/TIP49 complex, the IC50 came out at 150 nM. Besides, the GI50 in test [1] was 170 nM.

As for `COCc1c(NC(=O)CC(C)(C)CNC(=O)c2cc(Cl)cc3cc(C)oc23)c(=O)n(-c2ccccc2)n1C` [Example 120, 5-Chloro-N-(4-{[5-(methoxymethyl)-1-methyl-3-oxo-2-phenyl-2,3-dihydro-1H-pyrazol-4-yl]amino}-2,2-dimethyl-4-oxobutyl)-2-methylbenzofuran-7-carboxamide], at TIP48/TIP49 complex, the IC50 is 24 nM. Further, in test [1], it took 51 nM to inhibit growth by half (GI50).

On to `CCOc1ccc(Cl)cc1C(=O)NCC(C)(C)CC(=O)Nc1c(CCN(C)CC)n(C)n(-c2ccccc2)c1=O` [Example 35, 5-Chloro-2-ethoxy-N-{4-[(5-{2-[ethyl(methyl)amino]ethyl}-1-methyl-3-oxo-2-phenyl-2,3-dihydro-1H-pyrazol-4-yl)amino]-2,2-dimethyl-4-oxobutyl}benzamide], for which the IC50 against TIP48/TIP49 complex came to 26 nM. This molecule also returned a GI50 in test [1] of 98 nM.

At TIP48/TIP49 complex, `CCOc1ccc(Cl)cc1NC(=O)CC(C)(CC(=O)Nc1c(C)n(C)n(-c2ccccc2)c1=O)OC(C)=O` (stereo not drawn) [Example 102, {1-[2-(5-Chloro-2-ethoxyaniline)-2-oxoethyl]-3-[(1,5-dimethyl-3-oxo-2-phenyl-2,3-dihydro-1H-pyrazol-4-yl)amino]-1-methyl-3-oxopropyl} acetate] gave an IC50 of 150 nM. Also, it took 780 nM to inhibit growth in test [1] by half (GI50).

`Cc1c(NC(=O)CC(C)(O)CNC(=O)c2cc(Cl)c(F)cc2OC(C)C)c(=O)n(-c2ccccc2)n1C` (stereo not drawn) [Example 97, 5-Chloro-N-{4-[(1,5-dimethyl-3-oxo-2-phenyl-2,3-dihydro-1H-pyrazol-4-yl)amino]-2-hydroxy-2-methyl-4-oxobutyl}-4-fluoro-2-isopropoxybenzamide] came in with an IC50 against TIP48/TIP49 complex of 100 nM. For the same molecule, the 50% growth inhibitory concentration (GI50) in test [1] is 1000 nM.

By IC50 is commonly meant the concentration at which inhibition is half-maximal. The low end stands for greater potency in that assay, the high end for weaker potency in that assay. One may read the GI50 as the concentration that inhibits growth by half.
